Assay results from patent publication US11753373B2, “Protease inhibitors as antivirals” (priority 2021, dated 2023).
Read-outs that look alike come from different tables or passages of the source.

Assays:
[1] = format: in vitro ADME, Human; conditions: extraction ratio, compound at 1 uM, human liver microsomes 0.5 mg/mL
Experimental: (§1) Metabolic stability of novel protease inhibitors was determined via liver microsomal stability assay. Human, mouse, SD rat, beagle dog or monkey liver microsomes were incubated with the test compound for 5 to 60 minutes at 37° C., and then the remaining parent compound was quantified by LC-MS/MS. Percentage of the test compound remaining, half-life (t1/2), in vitro intrinsic clearance (CLint, in vitro), in vivo intrinsic clearance (CLint, in vivo), hepatic clearance (CLh) and extraction ratio (ER) were calculated.
(§2) Procedure: The assay was done as described in Baranczewski, P. et al. (2006) Pharmacological Reports 58:453-472; Pearson, P. and Wienkers, L. (2008) Handbook of Drug Metabolism, 2nd Edition. CRC Pres, P.478; and Venkatesh, P. et al. (2007) Biol. Pharm. Bull. 30:1021-2024. 0.625 mg/mL liver microsomes solution was prepared by mixing 2325 μL 100 mM of K-phosphate buffer (pH 7.4) containing 2.5 mM of MgCl2, 1.25 mM of EDTA, and 75 μL microsomes (20 mg/mL) in a vial for each species.
(§3) Positive control compound: (±) Verapamil hydrochloride (Cat No.: V4629; Lot No.: MKBV4993V; Source: Sigma)
(§4) 40 μL aliquots of the liver microsome/test compound mixture were dispensed into 96-well plate in triplicate and pre-warmed the mixture for 5 minutes at 37° C. Then, 10 μL of 5 mM NADPH solution was added to each well to initiate the reaction, and gently mixed. The samples were incubated at 37° C. with gentle shaking.
(§5) For 0-min samples, 200 μL of ACN containing internal standard was added to 40 μL of liver microsome/test compound mixture, followed by addition of 5 mM NADPH, and mixed gently.
(§6) For negative control: 40 μL of liver microsome/test compound mixture was incubated at 37° C. with gentle shaking for 60 minutes, followed by addition of 200 μL ACN containing 1% FA and internal standard and 10 μL of 5 mM NADPH, mixed gently.
(§7) All samples were centrifuged at 4° C. for 20 minutes at 4,000 rpm. Then, 100 μL of the supernatant from each sample was transferred to a new 96-well plate and 100 μL of ultrapure water containing 1% FA was added to each well, and mixed gently. Samples were analyzed by LC-MS/MS.
(§8) Data Analysis: Peak area ratio (Peak Area of test compound/Peak Area of internal standard) was used to represent the concentration of compound in each sample. The remaining percentage (% Remaining) at appointed time points was calculated versus the concentration of compound at 0 min. The Ln value of the remaining percentage was linearly fitted against the incubation time.
(§9) The half-life and clearance were calculated using the following equations:
(§10) Determined percent of the remaining test compound: % remaining=[area at tx/average areas at t0]×100 (1) % metabolized=[100−% remaining] (2)
(§11) Calculated the half-life (t1/2) using the slope (k) of the log-linear regression from the concentration of remaining parent compound versus time (min) relationship: t1/2 (min)=−ln 2/k. (3)
(§12) Clint, in vitro (mL/min/mg) Clint,in vitro=k/c,(c:Liver microsome concentration in the incubation system) (4)
(§13) Hepatic Clearance (CLh) CLh=Clint,in vivo*Hepatic Blood Flow (mL/min/kg)/(Hepatic Blood Flow (mL/min/kg)+Clint,in vivo) (6)
(§14) Extraction ratio (ER): ER=CLint,in vivo/(Qh+CLint,in vivo)*100,Qh:liver blood flow (7)

[2] = format: in vitro ADME; conditions: extraction ratio, compound at 1 uM; for Liver Microsomal Stability (ER) SD rat: SD rat liver microsomes 0.5 mg/mL; for Liver Microsomal Stability (ER) Beagle dog: beagle dog liver microsomes 0.5 mg/mL; for Liver Microsomal Stability (ER) Monkey: monkey liver microsomes 0.5 mg/mL; for Liver Microsomal Stability (ER) Mouse: mouse liver microsomes 0.5 mg/mL
Experimental: as §1, §2, §3
as §4, with “shaking. (Final concentrations: compound=1 μM; liver microsomes protein=0.5 mg/mL; MgCl2=2 mM; EDTA=1 mM; ACN=0.1%; DMSO=0.05%).” for “shaking.”
as §5, §6, §7, §8, §9, §10, §11, §12, §13, §14

[3] = biological target: SARS-CoV-2 M^pro (3CL protease) (Severe acute respiratory syndrome coronavirus 2 (2019-nCoV) (SARS-CoV-2), UniProt P0DTD1); format: biochemical; conditions: read-out: SARS-CoV-2M^pro inhibition IC50
[4] = wild type Mpro 17 nM, substrate 40 uM

SMILES	Liver Microsomal Stability (ER) Human [1]	Liver Microsomal Stability (ER) SD rat [2]	Liver Microsomal Stability (ER) Beagle dog [2]	Liver Microsomal Stability (ER) Monkey [2]	Liver Microsomal Stability (ER) Mouse [2]	IC50 [3] [nM]	IC50 [3, 4] [nM]
Cc1cccc2[nH]c(C(=O)N[C@@H](CC(C)C)C(=O)N[C@@H](C[C@@H]3CCNC3=O)C(=O)CCl)cc12 [Compound A-4-c, (2S)—N-[(2S)-4-chloro-3-oxo-1-[(3S)-2-oxopyrrolidin-3-yl]butan-2-yl]-4-methyl-2-[(4-methyl-1H-indol-2-yl)formamido]pentanamide]	0.67	0.70	0.72	0.69	0.81	1120	
COc1cccc2[nH]c(C(=O)N[C@@H](CC(C)C)C(=O)N[C@@H](C[C@@H]3CCNC3=O)C(=O)CCl)cc12 [Compound A-5-c, (2S)—N-[(2S)-4-chloro-3-oxo-1-[(3S)-2-oxopyrrolidin-3-yl]butan-2-yl]-2-[(4-methoxy-1H-indol-2-yl)formamido]-4-methylpentanamide]	0.89	0.74	0.80	0.79	0.84	359	
CC1(C)[C@@H]2[C@@H](C(=O)N[C@H](C#N)C[C@@H]3CCNC3=O)N(C(=O)[C@@H](NC(=O)C(F)(F)F)C3CC3)C[C@@H]21 [Compound D-2-a]	0.05	0.03	−0.04		0.13		24
CC(C)C(=O)N[C@H](C(=O)N1C[C@H]2[C@@H]([C@H]1C(=O)N[C@H](C#N)C[C@@H]1CCNC1=O)C2(C)C)C1CC1 [Compound D-2-b]	0.08	0.00	0.06		0.10		42.5
CC1(C)[C@@H]2[C@@H](C(=O)N[C@H](C#N)C[C@@H]3CCNC3=O)N(C(=O)[C@@H](NC(=O)C(F)F)C3CC3)C[C@@H]21 [Compound D-2-d]	0.03	0.05	0.05		0.18		58.7
CC1(C)[C@@H]2[C@@H](C(=O)N[C@H](C#N)C[C@@H]3CCCNC3=O)N(C(=O)[C@@H](NC(=O)C(F)F)C3CC3)C[C@@H]21 [Compound D-2-e]	0.09	0.04	−0.03		0.17		7.02
CC(C)C[C@H](NC(=O)c1cc2ccccc2[nH]1)C(=O)N1C[C@H]2[C@@H]([C@H]1C(=O)N[C@H](C#N)C[C@@H]1CCNC1=O)C2(C)C [Compound G-1-b]	0.38	0.33	0.33	0.51	0.16		377
CC(C)C[C@H](NC(=O)c1cc2ccccc2[nH]1)C(=O)N1C[C@H]2[C@@H]([C@H]1C(=O)N[C@@H](C#N)C[C@@H]1CCNC1=O)C2(C)C [Compound G-1-c]	0.67	0.30	0.30	0.58	0.27		964
CC(C)C[C@H](NC(=O)c1cc2ccccc2[nH]1)C(=O)N1C[C@H]2[C@@H]([C@H]1C(=O)N[C@@H](C[C@@H]1CCNC1=O)C(=O)CCl)C2(C)C [Compound G-1-d, N-[(2S)-1-[(1R,2S,5S)-2-{[(2S)-4-chloro-3-oxo-1-[(3S)-2-oxopyrrolidin-3-yl]butan-2-yl]carbamoyl}-1,5-dihydrogenio-6,6-dimethyl-3-azabicyclo[3.1.0]hexan-3-yl]-4-methyl-1-oxopentan-2-yl]-1H-indole-2-carboxamide]	0.83	0.78	0.81	0.92	0.59	968	
CC(C)C[C@H](NC(=O)c1cc2ccccc2[nH]1)C(=O)N1C[C@H]2[C@@H]([C@H]1C(=O)N[C@@H](C[C@@H]1CCNC1=O)C(=O)CO)C2(C)C [Compound G-1-e]	0.17	0.07	0.07		0.25		57.9
CC(C)C[C@H](NC(=O)c1cc2ccccc2[nH]1)C(=O)N1C[C@H]2[C@@H]([C@H]1C(=O)N[C@H](C=O)C(C)C)C2(C)C [Compound G-2-a]	0.54	0.53	0.56	0.48	0.16		> 2000
CC(C)C[C@H](NC(=O)c1cc2ccccc2[nH]1)C(=O)N1C[C@H]2[C@@H]([C@H]1C(=O)N[C@H](C(=O)CCl)C(C)C)C2(C)C [Compound G-2-c]	0.85	0.79	0.84		0.92		> 2000
CC(C)C[C@H](NC(=O)c1cc2ccccc2[nH]1)C(=O)N1C[C@H]2[C@@H]([C@H]1C(=O)N[C@H](C=O)C(C)(C)C)C2(C)C [Compound G-3-a]	0.70	0.54	0.62		0.78		> 10000
CC(C)C[C@H](NC(=O)C(F)(F)F)C(=O)N1C[C@H]2[C@@H]([C@H]1C(=O)N[C@H](C#N)C[C@@H]1CCNC1=O)C2(C)C [Compound H-1-c]	0.15	0.06	0.02		0.44		36.7
CC(C)C[C@H](NC(=O)C(C)C)C(=O)N1C[C@H]2[C@@H]([C@H]1C(=O)N[C@H](C#N)C[C@@H]1CCNC1=O)C2(C)C [Compound H-1-e]	0.05	0.06	0.05		0.31		43.3
CC(C)C(=O)N[C@H](C(=O)N1C[C@H]2[C@@H]([C@H]1C(=O)N[C@@H](C[C@@H]1CCNC1=O)C(N)=O)C2(C)C)C(C)(C)C [Compound H-2-b]	0.18	0.37	0.06		0.37		6.6
